Assay: clinical
Design: species or system children with CPP
Conditions: human, in vivo, sc, 45 mg
Protocol: All samples were processed by a central laboratory (Syneos Health [formerly […] Health Clinique Inc.], Canada). A validated bioanalytical LC-MS/MS method with an LLOD of 0.025 ng/mL was used to measure serum leuprolide concentrations.

Cmax: 212 ng/mL
level at 672 h: 0.63 ng/mL
AUC (burst phase): 938 ng·h/mL
AUC (plateau phase): 42300 ng·h/mL
Tmax (T max, burst phase (time at which the Cmax is observed)): 3.7 h
Tmax (Time after injection at which leuprolide levels peaked): 4 h
SMILES: CCNC(=O)[C@@H]1CCCN1C(=O)[C@H](CCCNC(=N)N)NC(=O)[C@H](CC(C)C)NC(=O)[C@@H](CC(C)C)NC(=O)[C@H](Cc1ccc(O)cc1)NC(=O)[C@H](CO)NC(=O)[C@H](Cc1c[nH]c2ccccc12)NC(=O)[C@H](Cc1c[nH]cn1)NC(=O)[C@@H]1CCC(=O)N1 [leuprolide]

Reference: publication PMC7442270, “Phase 3 Trial of a Small-volume Subcutaneous 6-Month Duration Leuprolide Acetate Treatment for Central Precocious Puberty” (The Journal of Clinical Endocrinology and Metabolism, 2020)
